Literature values in paper PMC10726920 (Cancer Medicine, 2023).

Tests used:
[1] = system: human ALL cell line xenografts; design: method as in PMID 26917778; settings: cited from earlier work
[2] = system: human ALL lines and clinical ALL samples; design: method as in PMID 26917778; settings: cited from earlier work
[3] = system: patients with advanced solid malignancies; settings: original drug formulation, daily dosing; cited from earlier work
[4] = system: patients with advanced multiple myeloma; design: method as in PMID 26800393; settings: orally daily; cited from earlier work

For `CC(C)n1nc(-c2ccc3oc(N)nc3c2)c2c(N)ncnc21` [sapanisertib], the “growth of human ALL cell line xenografts” value [1] is listed as “inhibited growth”, the “cytotoxic effects compared with rapamycin” value [2] is listed as “greater cytotoxic effects than rapamycin” and the “maximum tolerated dose (MTD)” value [3] is listed as 6 mg/day. For the same compound, the MTD [4] was 6 mg.
